Assay results reported in the NIST ThermoML archive (doi:10.1016/j.jct.2011.11.019).

Assay: xn = mol fraction of the nth substance listed
Conditions: 298.15 K, 101 kPa, Liquid, Vibrating tube method

OC(C(F)(F)F)C(F)(F)F [1,1,1,3,3,3-hexafluoro-2-propanol] + O
Conditions	mass density [kg/m3]
x1 = 0.1024	1261.96
x1 = 0.205	1387.36
x1 = 0.3016	1455.74
x1 = 0.4067	1501.77
x1 = 0.4929	1527.75
x1 = 0.5943	1550.19
x1 = 0.6411	1558.59
x1 = 0.8065	1585.8
x1 = 0.9005	1593.04
